Measurements from patent US20120237524A1, “MET INHIBITORS FOR ENHANCING RADIOTHERAPY EFFICACY” (priority 2011, published 2012).

Tests used:
[1] = biological target: T1, ATM kinase (Homo sapiens, UniProt Q13315); experiment: ATM kinase inhibition in irradiated cells, western blot time course; assay type: cell-based; settings: MDA-MB-435S or MDA-MB-231, 10 μM, time course after irradiation
T1 construct: endogenous in cells; host or cells: MDA-MB-435S, MDA-MB-231 (ATCC)
Experimental: Met protein expression, Chk2 phosphorylation (p-Chk2) and p65/RelA nuclear translocation in MDA-MB-435S treated with the ATM kinase inhibitor CGK733, and extracted at the indicated time-points after irradiation. ctrl, non-irradiated cells at time zero.
Cell lines (A549, MDA-MB-231, LoVo, MDAMB-4355, U-87MG, U-251, PC3, SF295, DLD1, SK-N-SH) were from ATCC. For ATM kinase inhibition, cells were pre-treated for 4 h before irradiation and then kept in the presence of CGK733 (10 μM in DMSO). siRNAs targeting RELA (ON-TARGET plus SMART pool L-003533-00 Human RELA, NM 021975, Dharmacon, 100 nM), or control siRNAs (ON-TARGET plus SMART pool, siCONTROL Non Targeting siRNA, Dharmacon) were transiently transfected.
Protein expression was investigated in irradiated confluent, serum-starved cells. For fractionation in cytoplasmic and nuclear portions, cells were washed and incubated on ice for 10 min in “buffer A” (10 mM HEPES pH 7.9, 10 mM KCl, 0.1 mM EDTA, 0.5% NP-40, 1 mM dithiothreitol, 1 mM phenylmethylsulfonyl fluoride and a cocktail of protease inhibitors). Supernatants, containing the cytoplasmic extracts, were separated by centrifugation. Pellets were resuspended in “buffer B” (20 mM HEPES pH 7.9, 400 mM KCl, 1 mM EDTA, 1 mM dithiothreitol, 10% glycerol, 1 mM phenylmethylsulfonyl fluoride and a cocktail of protease inhibitors) and incubated at 4° C. for 1 h with vigorous mixing. The resulting nuclear lysates were clarified by high-speed centrifugation. Equal amount of proteins were resolved by SDS-PAGE and analysed by western blot with the following primary antibodies: mouse anti-human Met (DL21 disclosed in Prat et al., Int. J. Cancer 49, 323-328 (1991)), mouse anti-p65/RelA and mouse anti-HIF-1α (BD Biosciences), rabbit anti-phospho-Ser276 and rabbit anticaspase-3 (Cell Signaling), rabbit anti-phospho-Chk2 (T68, R&D Systems). Goat anti-actin (C-11; Santa Cruz Biotechnology) and mouse anti-lamin B (Calbiochem) were used for control of equal cytoplasmic or nuclear protein loading, respectively. […] Densitometric analysis was performed with Quantity One 1-D (Bio-Rad Laboratories). […]

[2] = biological target: T2, Met (Homo sapiens, UniProt P08581); experiment: Met phosphorylation (immunoprecipitation, anti-phospho-Tyr western blot) in MDA-MB-231; assay type: cell-based; settings: MDA-MB-231, HGF 50 ng/ml (non-saturating)
T2 construct: Met phosphorylation in MDA-MB-231 treated with HGF (50 nM) and/or IR (10 Gy); endogenous in cells; host or cells: MDA-MB-231 (ATCC)

[3] = system: MDA-MB-4355 spheroids; experiment: Branching morphogenesis assay; assay type: cell-based, human; settings: HGF 5 nM alone (suboptimal concentration), non-irradiated MDA-MB-4355
Experimental: a, Basement membrane invasion by irradiated MDA-MB-231 or U-251 (10 Gy; ctrl, control). Micrographs of transwell filters (10×). b, Aberrant Met-induced branching morphogenesis in irradiated MDA-MB-4355 (10 Gy; ctrl, control), cultured with or without (−) the indicated HGF concentrations. Scale bar: 100 μm.
MDA-MB-4355 spheroids were preformed by single-cell resuspension in 240 mg/ml methylcellulose (Sigma) and culture in nonadherent 96-well plates (Greiner) for 24 h. Spheroids were transferred into a matrix containing 1.3 mg/ml type I collagen from rat tail (BD Biosciences), 10% FBS, and 240 mg/ml methylcellulose. After 24 h, cells were irradiated and/or cultured in the presence of HGF for 7 days. HGF was obtained as a baculovirus recombinant protein in SF9 cells. The conditioned medium from uninfected cells was used as negative control. Images are representative of results obtained in three independent experiments.

[4] = system: U-251; experiment: Cell viability assay with DN30 Fab, with irradiation (10 Gy); assay type: cell-based, human
Experimental: Viability of U-251 irradiated with 10 Gy and/or cultured in the presence of the Fab fragment of the DN30 anti-Met antibody, for 48 h (vehicle: non-irradiated cells). Columns: mean of triplicate analyses of three independent experiments±s.e.m. […] Columns: percentage of cells generating clones (mean of triplicate analyses of two independent experiments±s.e.m., * p<0.05, n=6, paired t-test).
10^3 cells were seeded in 96-well plates and grown for 24 h. Culture medium was replaced with medium containing 1% FBS and DN30 Fab (28 μg/ml) or the vehicle alone (PBS). After 24 h, cells were irradiated (10 Gy). Cell viability was assessed as above.

T1 sequence (Q13315 whole entry): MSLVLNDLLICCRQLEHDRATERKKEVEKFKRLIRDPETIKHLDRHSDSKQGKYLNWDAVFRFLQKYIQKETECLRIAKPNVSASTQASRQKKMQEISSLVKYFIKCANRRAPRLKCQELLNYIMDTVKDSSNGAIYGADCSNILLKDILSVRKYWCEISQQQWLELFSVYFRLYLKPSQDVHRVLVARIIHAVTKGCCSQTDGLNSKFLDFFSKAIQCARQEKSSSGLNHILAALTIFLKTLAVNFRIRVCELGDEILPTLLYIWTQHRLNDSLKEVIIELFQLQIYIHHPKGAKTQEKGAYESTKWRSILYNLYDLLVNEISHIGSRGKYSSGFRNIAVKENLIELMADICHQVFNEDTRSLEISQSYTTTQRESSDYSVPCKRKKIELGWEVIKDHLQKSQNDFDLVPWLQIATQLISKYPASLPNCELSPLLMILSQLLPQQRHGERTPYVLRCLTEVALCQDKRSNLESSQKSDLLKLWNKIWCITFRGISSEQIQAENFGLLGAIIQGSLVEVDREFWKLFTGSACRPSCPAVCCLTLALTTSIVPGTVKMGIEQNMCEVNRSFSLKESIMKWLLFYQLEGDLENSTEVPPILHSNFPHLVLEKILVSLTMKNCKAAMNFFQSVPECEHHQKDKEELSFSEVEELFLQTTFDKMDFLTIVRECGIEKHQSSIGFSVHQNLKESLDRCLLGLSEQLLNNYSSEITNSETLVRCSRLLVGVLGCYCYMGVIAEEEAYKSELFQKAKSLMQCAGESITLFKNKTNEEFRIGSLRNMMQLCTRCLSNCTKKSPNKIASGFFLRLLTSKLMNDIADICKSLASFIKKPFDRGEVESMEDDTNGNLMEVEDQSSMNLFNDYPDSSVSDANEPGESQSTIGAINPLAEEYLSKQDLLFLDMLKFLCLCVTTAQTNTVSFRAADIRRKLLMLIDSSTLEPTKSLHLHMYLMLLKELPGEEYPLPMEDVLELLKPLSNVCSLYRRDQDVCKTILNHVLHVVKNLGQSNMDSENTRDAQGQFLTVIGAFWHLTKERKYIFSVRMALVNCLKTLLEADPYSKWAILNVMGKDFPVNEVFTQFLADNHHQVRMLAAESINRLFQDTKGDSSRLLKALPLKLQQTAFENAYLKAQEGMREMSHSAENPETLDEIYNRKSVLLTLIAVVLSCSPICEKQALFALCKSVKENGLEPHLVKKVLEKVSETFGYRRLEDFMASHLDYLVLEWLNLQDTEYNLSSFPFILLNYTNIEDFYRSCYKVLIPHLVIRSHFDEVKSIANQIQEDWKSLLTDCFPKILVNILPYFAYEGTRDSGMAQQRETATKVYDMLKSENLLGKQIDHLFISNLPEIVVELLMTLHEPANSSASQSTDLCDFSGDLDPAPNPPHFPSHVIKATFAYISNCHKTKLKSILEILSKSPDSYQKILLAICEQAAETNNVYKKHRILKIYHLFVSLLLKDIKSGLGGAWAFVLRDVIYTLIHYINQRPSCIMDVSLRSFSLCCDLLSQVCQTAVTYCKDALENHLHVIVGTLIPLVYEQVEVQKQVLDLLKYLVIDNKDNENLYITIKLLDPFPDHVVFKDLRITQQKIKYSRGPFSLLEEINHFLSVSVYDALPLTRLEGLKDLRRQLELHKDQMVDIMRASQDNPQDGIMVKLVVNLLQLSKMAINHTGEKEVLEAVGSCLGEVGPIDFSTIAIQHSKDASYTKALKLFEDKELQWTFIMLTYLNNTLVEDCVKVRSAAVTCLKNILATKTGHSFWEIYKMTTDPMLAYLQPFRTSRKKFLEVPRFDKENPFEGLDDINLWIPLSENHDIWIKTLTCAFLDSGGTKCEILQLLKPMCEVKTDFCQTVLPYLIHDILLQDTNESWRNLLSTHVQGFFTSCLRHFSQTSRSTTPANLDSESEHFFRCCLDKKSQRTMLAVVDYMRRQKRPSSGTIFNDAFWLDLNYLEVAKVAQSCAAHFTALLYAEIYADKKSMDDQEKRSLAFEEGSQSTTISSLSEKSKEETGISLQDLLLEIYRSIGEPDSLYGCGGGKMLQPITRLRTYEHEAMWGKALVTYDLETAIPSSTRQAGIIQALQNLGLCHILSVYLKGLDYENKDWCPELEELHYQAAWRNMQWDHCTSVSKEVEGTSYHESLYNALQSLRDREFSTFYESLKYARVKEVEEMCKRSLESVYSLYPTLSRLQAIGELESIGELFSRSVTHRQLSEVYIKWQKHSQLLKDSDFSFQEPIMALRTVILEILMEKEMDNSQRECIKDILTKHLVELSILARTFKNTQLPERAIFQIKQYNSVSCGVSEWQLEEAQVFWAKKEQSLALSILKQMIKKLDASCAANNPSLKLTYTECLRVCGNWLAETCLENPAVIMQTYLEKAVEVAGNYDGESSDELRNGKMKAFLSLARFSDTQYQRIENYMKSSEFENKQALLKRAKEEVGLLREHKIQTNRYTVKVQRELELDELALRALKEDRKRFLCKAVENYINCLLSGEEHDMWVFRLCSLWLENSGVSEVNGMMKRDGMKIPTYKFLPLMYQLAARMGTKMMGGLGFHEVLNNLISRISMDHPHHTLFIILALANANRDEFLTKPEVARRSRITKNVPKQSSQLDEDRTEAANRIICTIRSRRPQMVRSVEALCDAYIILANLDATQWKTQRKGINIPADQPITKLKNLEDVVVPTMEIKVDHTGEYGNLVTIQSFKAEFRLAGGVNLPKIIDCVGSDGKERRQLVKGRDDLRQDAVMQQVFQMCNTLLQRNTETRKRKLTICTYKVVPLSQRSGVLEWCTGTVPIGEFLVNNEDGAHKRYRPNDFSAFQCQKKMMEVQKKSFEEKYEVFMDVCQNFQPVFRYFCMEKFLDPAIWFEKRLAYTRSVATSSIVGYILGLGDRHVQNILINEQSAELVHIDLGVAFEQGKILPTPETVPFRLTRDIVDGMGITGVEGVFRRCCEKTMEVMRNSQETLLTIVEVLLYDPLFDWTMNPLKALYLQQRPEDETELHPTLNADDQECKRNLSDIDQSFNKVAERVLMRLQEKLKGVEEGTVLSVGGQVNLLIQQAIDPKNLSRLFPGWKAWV
T2 sequence (P08581 25-1390): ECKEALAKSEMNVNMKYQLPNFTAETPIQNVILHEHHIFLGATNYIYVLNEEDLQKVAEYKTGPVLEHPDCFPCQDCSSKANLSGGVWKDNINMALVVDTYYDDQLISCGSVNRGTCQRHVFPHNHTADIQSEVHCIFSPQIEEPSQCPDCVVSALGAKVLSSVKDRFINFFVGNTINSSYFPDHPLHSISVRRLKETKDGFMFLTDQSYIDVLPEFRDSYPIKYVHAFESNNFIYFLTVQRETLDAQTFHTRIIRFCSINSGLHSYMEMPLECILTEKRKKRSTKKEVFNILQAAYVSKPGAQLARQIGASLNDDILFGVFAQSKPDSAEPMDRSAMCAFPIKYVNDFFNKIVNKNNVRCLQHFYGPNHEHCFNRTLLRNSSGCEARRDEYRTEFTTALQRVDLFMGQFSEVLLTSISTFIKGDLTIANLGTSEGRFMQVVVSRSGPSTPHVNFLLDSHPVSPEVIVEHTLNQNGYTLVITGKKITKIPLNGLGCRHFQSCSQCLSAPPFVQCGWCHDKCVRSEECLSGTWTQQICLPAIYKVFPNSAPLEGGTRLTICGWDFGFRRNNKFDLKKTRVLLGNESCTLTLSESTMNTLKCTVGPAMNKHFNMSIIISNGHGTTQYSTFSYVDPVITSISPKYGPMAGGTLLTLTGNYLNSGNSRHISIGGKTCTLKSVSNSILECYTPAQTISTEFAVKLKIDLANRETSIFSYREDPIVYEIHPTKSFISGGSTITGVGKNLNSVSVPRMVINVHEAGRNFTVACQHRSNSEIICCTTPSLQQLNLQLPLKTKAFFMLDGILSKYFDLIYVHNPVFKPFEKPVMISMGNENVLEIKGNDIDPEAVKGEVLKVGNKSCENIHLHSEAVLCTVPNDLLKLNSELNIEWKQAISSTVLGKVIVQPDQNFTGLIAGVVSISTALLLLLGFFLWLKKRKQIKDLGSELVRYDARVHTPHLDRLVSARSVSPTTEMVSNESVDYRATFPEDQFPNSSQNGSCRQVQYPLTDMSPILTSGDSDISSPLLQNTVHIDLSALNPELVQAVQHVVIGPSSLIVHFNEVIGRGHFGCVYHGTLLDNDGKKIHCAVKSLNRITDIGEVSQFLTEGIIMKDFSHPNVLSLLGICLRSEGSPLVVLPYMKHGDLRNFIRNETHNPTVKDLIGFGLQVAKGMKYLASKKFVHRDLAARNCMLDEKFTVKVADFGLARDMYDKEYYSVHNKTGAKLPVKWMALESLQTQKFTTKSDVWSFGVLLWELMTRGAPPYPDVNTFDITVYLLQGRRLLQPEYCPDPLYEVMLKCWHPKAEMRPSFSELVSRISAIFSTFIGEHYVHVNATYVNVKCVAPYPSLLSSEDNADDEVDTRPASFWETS

Molecule: O=C(NC(NC(=S)Nc1ccc(F)c([N+](=O)[O-])c1)C(Cl)(Cl)Cl)C(c1ccccc1)c1ccccc1 (stereo not shown) [CGK733]
- IR-induced Met protein overexpression [1]: prevented
- IR-induced p65/RelA nuclear translocation [1]: prevented
- IR-induced phosphorylation of the specific ATM substrate Chk2 [1]: prevented

Molecule: HGF: Hepatocyte Growth Factor, Met ligand, obtained as a baculovirus recombinant protein in SF9 cells
- time to peak of Met phosphorylation [2]: 30 min
- induction of branching morphogenesis [3]: incapable of inducing branching morphogenesis

B1: Fab fragment of the DN30 anti-Met antibody: Fab fragment obtained through DN30 papain digestion and affinity purification; induces MET down-regulation (antibody)
heavy: QVQLQQPGTELVKPGASVKLSCKASGYTFTSYWIHWVKQRPGQGLEWIGEINPSSGRTNYNEKFKNKVTVTVDKSSTTAYMQLSNLTSEDSAVYYCASRGYWGQGTTLTVSSAKTTAPSVYPLAPVCGNTTGSSVTLGCLVKGYFPEPVTLTWNSGSLSSGVHTFPAVLQSDLYTLSSSVTVTSSTWPSQSITCNVAHPASSTKVDKKIEPRGPTIKPCPPCKCPAPNLLGGPSVFIFPPKIKDVLMISLSPIVTCVVVDVSEDDPDVQISWFVNNVEVHTAQTQTHREDYNSTLRVVSALPIQHQDWMSGKEFKCKVNNKDLPAPIERTISKPKGSVRAPQVYVLPPPEEEMTKKQVTLTCMVTDFMPEDIYVEWTNNGKTELNYKNTEPVLDSDGSYFMYSKLRVEKKNWVERNSYSCSVVHEGLHNHHTTKSFSRTPGK
light: DIVLTQSPASLAVSLGQRATISCKASQSVDYDGGSYMSWFQQRPGQPPKLLISAASNLESGIPARFSGSGSGTDFTLNIHPVEEEDVATYYCQQSYEDPLTFGAGTKLELKRADAAPTVSIFPPSSEQLTSGGASVVCFLNNFYPKDINVKWKIDGSERQNGVLNSWTDQDSKDSTYSMSSTLTLTKDEYERHNSYTCEATHKTSTSPIVKSFNRNEC
- Viability of U-251 (combination vs single treatments) ([4]; U-251 irradiated with 10 Gy and cultured with DN30 Fab for 48 h, p<0.05, n=9): viability significantly reduced with respect to either Fab-DN30 or 10 Gy alone
- cell viability decrease ([4]; irradiated cells kept in the presence of DN30 Fab (28 μg/ml), 10 Gy): up to 75%
